The text below walks through data of patent US20090105172A1, “Stabilized Aptamers to PSMA and Their Use as Prostate Cancer Therapeutics” (priority 2005, published 2009).

Strand notation (5' to 3'): a small letter for the sugar, then the base; units joined by * are phosphorothioate-linked, units joined directly phosphodiester-linked; [ ] holds rarer units or linkages, { } end groups; capitals alone tell only the bases. {NH2} = amine modification, hexylamine terminal group for chemical coupling; [invdT] = inverted (3'-3') thymidine; d = 2'-deoxy (DNA); m = 2'-O-methyl; r = 2'-OH (RNA); f = 2'-fluoro

For data set [1] the following is noted: docetaxel in combination with prednisone (cited clinical trial, not the aptamer), every three weeks; cited from earlier work.
Data set [2] is described as follows: Plasma stability time course assay. It is filed as in vitro ADME. Conditions: 95% human plasma, 37° C. As for the experimental part: Plasma stability of each construct was measured using a plasma stability time course assay over 0, 1, 3, 10, 30, and 100 hours. A reaction was set up for each aptamer tested in an eppendorf tube using 95% human plasma (20 μl per time point), an appropriate concentration of aptamer (determined by the highest predicted dosing level (CMax)), and a sufficient amount of spiked 5′-end labeled aptamer such that a 1:10 dilution of the reaction will be over 1000 cpm, brought to total volume with 1×PBS. When assembling the reaction, the plasma was added last, and the reactions were immediately added to a 37° C. heat block. A reaction for each aptamer tested containing 1×PBS instead of plasma was used as a 0 hour time point. At each designated time point, 20 μl was withdrawn from each reaction and added to an appropriately labeled eppendorf tube containing 200 μl of formamide loading dye, and was immediately snap frozen in liquid nitrogen and stored at −20° C. After all the samples were collected 20 μl of each plasma sample/loading dye was aliquoted into separate tubes, and 2 μl of 1% SDS was added to each tube (final SDS concentration 0.1%). The samples containing 0.1% SDS were heated at 90° C. for 10-15 minutes. […]
The percentage of the parent aptamer remaining for each time-point was determined by quantifying the parent aptamer band and dividing by the total counts in the lane. […]

In another data set the target is PSMA NAALADase activity (Homo sapiens, UniProt Q04609). Nature of the data set: NAALADase inhibition assay. It is filed as biochemical. Conditions: relative to parent. As for the experimental part: These point mutant constructs were assessed for activity in terms of inhibition of PSMA NAALADase activity. The NAALADase assay was performed in 96 well format. PSMA aptamers were serially diluted in 1× reaction buffer (40 mM Tris-HCl, pH 7.4, 0.1 mM ZnSO4, 0.1 mg/in L BSA) in a standard 96 well plate to be tested at a final concentration range from 30 pM to 1 μM. The enzyme was prepared by diluting 30 μL of 100 nM PSMA into 8 mL of reaction buffer, and kept cool on ice. The substrate was prepared by adding 19 μl of NAAG [Glutamate-3,4-^3H], 50.8 Ci/mmol, 19.7 μM (Perkin-Elmer, Wellesley, Mass., NET1082) into 2.2 mL of reaction buffer.
Following preparation of all reagents, 4 μl of each serially diluted aptamer was added to a separate 96 well plate (the reaction plate). 76 μl of diluted enzyme was added to the corresponding wells containing aptamer. 80 μl of reaction buffer was added to one column of wells to serve as a background control. The diluted substrate and reaction plate were then moved to a room at 37° C. and allowed to equilibrate for 10 minutes. After temperature equilibration, 20 μl of the prepared substrate was added to each well using a 12 channel pipet for a final volume of 100 μl/well, and a final concentration of […] enzyme and 30 nM substrate per well. A column of wells containing enzyme and substrate only was used as a high control. The aptamer/enzyme/substrate reaction was incubated at 37° C. for 15 minutes, and stopped by the addition of 100 μl of quench buffer (100 mM sodium phosphate, pH 7.4, 2 mM EDTA).
To separate the cleavage products, […] and Glutamate, from the substrate, an AG 1-X8, 200-400 mesh, formate resin (BioRad, Hercules, Calif., # 140-1454) was used. The resin was prepared by forming a 1:1 slurry in H2O, and adding 140 μl per 96 well using a Multiscreen filter plate (Multiscreen, 1.2 μm filter plates (Millipore, Billerica, Mass., # MABVN1250)). […] The plate was sealed and read using a Packard Topcount Microplate Scintillation Counter. […]

For another data set, the system named is LNCaP cells (PSMA+). Nature of the data set: LNCaP FACS binding assay with fluorescein-labeled aptamers. It counts as cell-based. The note with it: FACS histogram. On the procedure: To prepare aptamers for the FACS assay, PSMA aptamers were serially diluted (0-1 uM) in FACS buffer (1×DPBS w/Ca^++/Mg^++ (Gibco, Carlsbad, Calif.) supplemented with 10 mg/mL salmon sperm DNA & 0.2% Na Azide), in a V-bottom 96 well plate, at the concentrations to be tested. LNCaP and PC-3 cells (ATCC, Manassas, Va.) were harvested with trypsin, and 200,000 cells/well were counted, washed once with 1×DPBS (with Ca^++ and Mg^+) and resuspended in 200 μl of FACS Buffer. The 200 μl of cells in FACS buffer were added to individual wells of a new 96 well plate, pelleted by centrifugation (1300 rpm for 5 minutes), and resuspended in 100 μl of the appropriate concentration of diluted aptamer. FACS buffer, a-PSMA antibody (3C6) (Northwest Biotherapeutics, Bothell, Wash., Cat #: 60-5002) and an irrelevant fluorescein isothiocyanate (“FITC”) mouse IgG1 isotype control antibody (BD Pharmingen, San Diego, Calif., Cat#: 554679) were used as controls. The wells of aptamer/cell mixture were incubated at room temperature for 20-30 minutes.
After incubation, 180 μl of FACS buffer (plus 10 mg/mL ssDNA, and 0.2% Na Azide) was added to each well to quench the reaction and cells were pelleted by centrifugation.
Anti-fluorescein/Oregon Green®, rabbit IgG fraction, Alexa Fluor® 488 conjugate (Molecular Probes, Eugene, Oreg., Cat#: A11090) was diluted 1:100 in FACS buffer (100 μl/well) as the secondary antibody for the aptamer-FITC conjugates and FITC-mouse IgG isotype control. FITC Rat anti-mouse IgG1 (A85-1) (BD Pharmingen, San Diego, Calif., Cat#: 553443) was diluted in 1:100 in FACS Buffer as the secondary for the α-PSMA antibody. After centrifugation, the cell pellets were resuspended in 100 μl of the appropriate diluted secondary antibody, and incubated 10 minutes at room temperature. After incubation, 180 μl of FACS buffer was added to each well to quench the reaction, and cells were pelleted by centrifugation.
A tertiary antibody which recognizes the Alexa Fluor® 488 goat anti-rabbit IgG was prepared to further amplify the Alexa Fluor signal. Alexa Fluor® 488 goat anti-rabbit IgG (H+ L) (Molecular Probes, Eugene, Oreg., Cat#: A11034) was diluted 1:100 in FACS buffer, and the pelleted cells were resupsended in 100 μl of the tertiary antibody and incubated for 10 minutes at room temperature. […]
(§1) Cell samples were analyzed on a FACS Scan machine (Becton Dickinson, San Jose, Calif.) under the following parameters: FSC/SSC, FL-1/FSC, FL-3/FSC. The unstained and/or isotype controls were used to establish gating parameters, and the data was analyzed using Cell Quest Pro software version 5.1.1 (Becton Dickinson Immunocytometry Systems, San Jose, Calif.).

The subject of a further data set is PC-3 cells (PSMA−). Put plainly: FACS binding assay, control cell line. It is filed as cell-based. Conditions: FACS histogram. As for the experimental part: To prepare aptamers for the FACS assay, PSMA aptamers were serially diluted (0-1 uM) in FACS buffer (1×DPBS w/Ca^++/Mg^++ (Gibco, Carlsbad, Calif.) supplemented with 10 mg/mL salmon sperm DNA & 0.2% Na Azide), in a V-bottom 96 well plate, at the concentrations to be tested. LNCaP and PC-3 cells (ATCC, Manassas, Va.) were harvested with trypsin, and 200,000 cells/well were counted, washed once with 1×DPBS (with Ca^++ and Mg^+) and resuspended in 200 μl of FACS Buffer. The 200 μl of cells in FACS buffer were added to individual wells of a new 96 well plate, pelleted by centrifugation (1300 rpm for 5 minutes), and resuspended in 100 μl of the appropriate concentration of diluted aptamer. FACS buffer, a-PSMA antibody (3C6) (Northwest Biotherapeutics, Bothell, Wash., Cat #: 60-5002) and an irrelevant fluorescein isothiocyanate (“FITC”) mouse IgG1 isotype control antibody (BD Pharmingen, San Diego, Calif., Cat#: 554679) were used as controls. The wells of aptamer/cell mixture were incubated at room temperature for 20-30 minutes. […]
as §1

Chain of PSMA NAALADase activity (Q04609 with tags, fused parts or gaps limits assumed): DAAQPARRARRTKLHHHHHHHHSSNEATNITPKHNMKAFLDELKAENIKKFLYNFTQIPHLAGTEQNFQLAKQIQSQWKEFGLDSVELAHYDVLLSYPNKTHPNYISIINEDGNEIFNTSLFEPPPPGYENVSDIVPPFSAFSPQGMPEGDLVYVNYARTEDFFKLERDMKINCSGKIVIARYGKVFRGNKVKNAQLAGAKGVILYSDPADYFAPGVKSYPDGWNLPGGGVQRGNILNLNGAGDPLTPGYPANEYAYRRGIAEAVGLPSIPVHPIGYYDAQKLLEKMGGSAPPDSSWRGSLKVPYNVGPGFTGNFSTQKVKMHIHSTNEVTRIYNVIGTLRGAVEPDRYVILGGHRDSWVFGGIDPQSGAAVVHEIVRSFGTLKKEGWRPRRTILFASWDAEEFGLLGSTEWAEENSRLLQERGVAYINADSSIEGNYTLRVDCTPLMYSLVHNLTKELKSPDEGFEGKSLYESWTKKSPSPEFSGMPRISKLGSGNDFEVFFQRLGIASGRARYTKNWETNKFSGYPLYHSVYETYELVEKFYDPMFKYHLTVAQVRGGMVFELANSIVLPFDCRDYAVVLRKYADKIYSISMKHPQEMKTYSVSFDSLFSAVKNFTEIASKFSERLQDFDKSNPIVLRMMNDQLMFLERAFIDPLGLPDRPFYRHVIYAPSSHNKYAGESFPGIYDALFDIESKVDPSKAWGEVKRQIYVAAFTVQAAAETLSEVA

For the molecule `CC(=O)O[C@@]12CO[C@@H]1C[C@H](O)[C@@]1(C)C(=O)[C@H](O)C3=C(C)[C@@H](OC(=O)[C@H](O)[C@@H](NC(=O)OC(C)(C)C)c4ccccc4)C[C@@](O)([C@@H](OC(=O)c4ccccc4)[C@H]21)C3(C)C` [Taxotere, docetaxel], the “survival advantage over control group (mitoxantrone and prednisone)” value in data set [1] is recorded as “approximately 2.5 months”. “NH2-mCmGmGmAfCfCmGAAfCAmAmGmGmCfCfUGAfCfUfUfCfUAfUAfCfUAAmGmCmCmUAfCmGfUmUmCmCmG-3T ({NH2}-mCmGmGmAfCfCmGrArAfCrAmAmGmGmCfCfUrGrAfCfUfUfCfUrAfUrAfCfUrArAmGmCmCmUrAfCmGfUmUmCmCmG[invdT]; further chemistry not fully specified) [ARC1113, ribo-containing aptamer based on ARC 591 with fully-stabilized helical stems and a 3′-cap]”: in data set [2], the “half life (T1/2) in plasma” value worked out at 20 h.

In the case of “mCmGmGmAfCfCmGdAdAfCmAmAmGmGmCfCfU-s-dGmAfCfUfUfCfUmAfUmAfCfUdAmAmGmCmCmUmAfCmGfUmUmCmCmG-3T (mCmGmGmAfCfCmGdAdAfCmAmAmGmGmCfCfU*dGmAfCfUfUfCfUmAfUmAfCfUdAmAmGmCmCmUmAfCmGfUmUmCmCmG[invdT]) [ARC1725, ribo-free version based on ARC591]”, in data set [2], the “half life (T1/2) in plasma” value is 11 h. The “activity in the NAALADase inhibition assay” value with PSMA NAALADase activity is reported as “retained full activity”.

B1: GGGAGGACGAUGCGGACCGAAAAAGACCUGAfCfIUfCfUAfUAfCfUAAGfUfCfUAf CGfTUIJfCfCfCAGAfCGAfCfUfCGfCfCfCGA (nucleic acid)
chain: GGGAGGACGAUGCGGACCGAAAAAGACCUGACUUCUAUACUAAGUCUACGUUCCCAGACGACUCGCCCGA
modifications: 2'-fluoro at CU, RNA at AG, backbone not given here
notes: existing PSMA specific aptamer of rRfY composition from U.S. Ser. No. 09/978,969
B1: the “binding to LNCaP (PSMA+) cells” value in the data set with LNCaP cells (PSMA+) is given as “binding to LNCaP (PSMA+) cells”. In addition, the “binding to PC-3 (PSMA−) cells” value with PC-3 cells (PSMA−) was “not to PC-3 (PSMA−) cells”.
